Values joined by “and” are separate entries in the source; they are usually repeats but may differ in a detail not shown here. Equal entries are not always repeated.

For assay [1], the system named is GLP1R. As to the kind of experiment: Insulin secretion in isolated Glp1r+/+ and Glp1r(GE)−/− islets. It counts as cell-based, mouse. Particulars: for Insulin (secreted/total): G16.7+Ex4 (10 nM), individual repeats, listed as Ex4. An excerpt:
For all statistical tests, *P < 0.05, **P < 0.01 and NS, non-significant. […] Mean ± s.e.m. are shown. Source data are provided as a Source Data file.

Assay [2] deals with T1, GLP1R (Homo sapiens, UniProt P43220).
T1 construct: expressed in transfected cells
In words: HTRF cAMP assay in HEK293-SNAP_GLP1R cells, agonist and antagonist modes, with or without PAM BETP. Format: cell-based. The settings on record: n = 4 independent assays; for antagonist properties against GLP-1-induced cAMP production: applied at 1 µM, 30 min GLP-1 stimulation; for agonist or partial agonist activity (cAMP): ligand alone, 30 min. The protocol:
(§1) Mean ± s.e.m. are shown. **P < 0.01 for all statistical tests. Source data are provided as a Source Data file.
Potency for cAMP generation and inhibition was tested in heterologous expression systems, comprising either stable CHO-K1-SNAP_GLP1R or HEK-SNAP_GLP1R cells, or transiently transfected YFP-AD293-SNAP_GLP1R cells. Briefly, cells were incubated with increasing concentrations of compound with and without allosteric modulator for 30 min, before harvesting, lysis and measurement of cAMP using either cAMP-Glo^TM (Promega) or HTRF (Cisbio) assays, according to the manufacturer’s instructions. All assays were performed in the presence of 100–500 µM IBMX to inhibit phosphodiesterase activity. EC50 values were calculated using log concentration–response curves fitted with a three-parameter or four-parameter equation. […]
pharmacology. HTRF cAMP assays in HEK-SNAP_GLP1R cells in agonist and antagonist modes, stimulated with ligand for 30 min. Note that LUXendins are GLP1R antagonists […]
are shown. Source data are provided as a Source Data file.
(1 picture or pasted object on this page, not shown here)
A general note: TR-FRET usually uses a lanthanide donor and a delayed reading to cut background.

Assay [3] concerns GLP1R. In words: Surface GLP1R expression in islets, GLP1R monoclonal antibody staining. Format: cell-based, mouse. The settings on record: LUXendin555 250 nM, LUXendin645 100 nM, Ex9 250 nM.
Excerpt: as §1

The test system of assay [4] is GLP1R. As to the kind of experiment: cAMP imaging in islets with FRET probe Epac2-camps. The settings on record: Glp1r+/+ versus Glp1r(GE)−/− islets. It counts as cell-based, mouse. From the text:
Islets were transduced with adenovirus harboring the FRET sensor, Epac2-camps[56] (a kind gift from Prof. Dermot Cooper, University of Cambridge), before imaging using a Crest X-Light spinning disk system coupled to a Nikon Ti-E base and ×10/0.4 NA objective. Excitation was delivered at λ = 430–450 nm using a Lumencor Spectra X light engine. Emitted signals were detected at λ = 460–500 and λ = 520–550 nm for Cerulean and Citrine, respectively, using a Photometrics Delta Evolve EM-CCD. Imaging was performed in HEPES–bicarbonate buffer, containing (in mmol/L) 120 NaCl, 4.8 KCl, 24 NaHCO3, 0.5 Na2HPO4, 5 HEPES, 2.5 CaCl2, 1.2 MgCl2, and 3–17 D-glucose.

T1 sequence (P43220 24-463): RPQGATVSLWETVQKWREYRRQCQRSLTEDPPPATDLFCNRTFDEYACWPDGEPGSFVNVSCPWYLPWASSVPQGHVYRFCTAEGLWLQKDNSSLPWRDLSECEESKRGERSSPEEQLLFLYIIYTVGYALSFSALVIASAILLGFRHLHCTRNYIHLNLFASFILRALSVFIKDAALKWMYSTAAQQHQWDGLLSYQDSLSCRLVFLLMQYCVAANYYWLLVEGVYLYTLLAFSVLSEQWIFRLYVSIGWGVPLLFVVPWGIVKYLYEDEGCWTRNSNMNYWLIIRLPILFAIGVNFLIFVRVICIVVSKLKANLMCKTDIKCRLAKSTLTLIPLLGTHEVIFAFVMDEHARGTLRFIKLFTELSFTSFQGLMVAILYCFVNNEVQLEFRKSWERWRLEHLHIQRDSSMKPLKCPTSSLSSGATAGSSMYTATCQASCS

With Exendin4(1–39), the “Exendin4(1–39)-stimulated insulin secretion in Glp1r(GE)−/− islets” value in assay [1] (Ex4 10 nM) was “absence of Exendin4(1–39)-stimulated insulin secretion”. The “Insulin (secreted/total)” value in assay [1] (KO islets) was 0.004511 and 0.004222 and 0.01074 and 0.01469 and 0.006361 and 0.004456 and 0.008025 and 0.00578 and 0.004129 and 0.001581 and 0.003759 and 0.00219 and 0.001686 and 0.003265 and 0.005154 and 0.02304 and 0.01055 and 0.00295; in assay [1] (WT islets), 0.004112 and 0.004627 and 0.005837 and 0.009517 and 0.006319 and 0.005338 and 0.01271 and 0.01517 and 0.02135 and 0.009713 and 0.003732 and 0.0026 and 0.01717 and 0.03657 and 0.02723 and 0.004332.

Consider Exendin4(9–39), for which, in assay [2], the “antagonist properties against GLP-1-induced cAMP production” value is reported as “similarly blocked” and the “agonist or partial agonist activity (cAMP)” value is reported as “No agonist or partial agonist activity was detected”. In assay [3], the “GLP1R surface expression in islets” value is “no differences”.

Take “Liraglutide (HAEGTFTSDVSSYLEGQAAKEFIAWLVRGRG; chains of the INN, looked up) [incretin-mimetic]”: the “stimulation of cAMP rises in islets” value in assay [4] is listed as “only able to stimulate cAMP rises in islets from wild-type”.

For the substance “S39C-Exendin4(9–39): S39C mutant of Exendin4(9–39) with a C-terminal thiol handle”, in assay [2], the “antagonist properties against GLP-1-induced cAMP production” value is recorded as “similarly blocked” and the “agonist or partial agonist activity (cAMP)” value is reported as “No agonist or partial agonist activity was detected”.
